Tests used:
Cavia porcellus [1] = species: Cavia porcellus; assay: Inhibitory concentration required to block Ca+2 induced contraction of K+ depolarized guinea pig aorta; format: functional
Cavia porcellus [2] = species: Cavia porcellus; assay: Inhibitory concentration required to suppress the rate of contraction of guinea pig right atria; format: functional
Cavia porcellus [3] = species: Cavia porcellus; assay: Inhibitory concentration required to block Ca+2 induced contraction of K+ depolarized guinea pig taenia cecum; format: functional, Caecum
[4] = Selectivity ratio of IC50 for [Ca2+] antagonistic activity in aorta / IC50 for suppressive effect on rate of contraction; format: functional
Cavia porcellus [5] = species: Cavia porcellus; assay: Inhibitory concentration required to suppress the contractile force of guinea pig right atria; format: functional
[6] = Selectivity ratio of IC50 for [Ca2+] antagonistic activity in aorta / IC50 for suppressive effect on contractile force; format: functional

Row | SMILES | IC50 (Cavia porcellus [1]) | IC50 (Cavia porcellus [2]; read-out: IC50) | IC50 (Cavia porcellus [3]; Cavia porcellus, Caecum) | Ratio [4] | IC50 (Cavia porcellus [5]) | Ratio [6] | IC50 (Cavia porcellus [3]) | IC50 (Cavia porcellus [2])
1 | COc1ccc(OCCCCN(C)CCOc2ccc(OC)c(OC)c2)c(C2Sc3ccccc3N(C)C2=O)c1 (stereo unspecified) | 2900 nM | 600 nM | 230 nM | 4.8 | 440 nM | 6.6 | – | –
2 | COc1ccc(OCCCCN(C)CCOc2ccc3c(c2)OCO3)c(C2Sc3ccccc3N(C)C2=O)c1 (stereo unspecified) | 330 nM | 190 nM | 170 nM | 1.7 | 94 nM | 3.5 | – | –
3 | COc1ccc(OCCN(C)CCCCOc2ccc(OC)cc2C2Sc3ccccc3N(C)C2=O)cc1 (stereo unspecified) | – | – | 530 nM | – | – | – | – | –
4 | COc1ccc(OCCCN(C)CCOc2ccc3c(c2)OCO3)c(C2(C(C)C)Sc3ccccc3N(C)C2=O)c1 (stereo unspecified) | – | – | > 10000 nM | – | – | – | – | –
5 | COc1ccc(OCCCCN(C)CCOc2cc(OC)c(OC)c(OC)c2)c(C2Sc3ccccc3N(C)C2=O)c1 (stereo unspecified) | 1500 nM | 190 nM | 160 nM | 7.9 | 200 nM | 7.5 | – | –
6 | COc1ccc(OCCCCN(C)CCc2cc(OC)c(OC)c(OC)c2)c(C2Sc3ccccc3N(C)C2=O)c1 (stereo unspecified) | – | – | 350 nM | – | – | – | – | –
7 | COc1ccc(OCCCN(CCOc2ccc3c(c2)OCO3)C(C)C)c(C2Sc3ccccc3N(C)C2=O)c1 (stereo unspecified) | – | – | 1900 nM | – | – | – | – | –
8 | COc1ccc(OCCCN(C)CCc2cc(OC)c(OC)c(OC)c2)c(C2Sc3ccccc3N(C)C2=O)c1 (stereo unspecified) | 2400 nM | 400 nM | 270 nM | 6 | 520 nM | 4.6 | – | –
9 | COc1ccc(OCCCNCCOc2ccc3c(c2)OCO3)c(C2Sc3ccccc3N(C)C2=O)c1 (stereo unspecified) | – | – | 490 nM | – | – | – | – | –
10 | COc1ccc(OCCCN(C)CCOc2ccc3c(c2)OCO3)c(C2(C)Sc3ccccc3N(C)C2=O)c1 (stereo unspecified) | – | – | 2100 nM | – | – | – | – | –
11 | COc1cc(OC)cc(OCCN(C)CCCOc2ccc(OC)cc2C2Sc3ccccc3N(C)C2=O)c1 (stereo unspecified) | – | – | 550 nM | – | – | – | – | –
12 | COc1ccc(OCCCN(C)CCOc2ccc3c(c2)OCO3)c(C2(SC)Sc3ccccc3N(C)C2=O)c1 (stereo unspecified) | – | – | 1500 nM | – | – | – | – | –
13 | COc1ccc(OCCCN(C)CCOc2ccc3c(c2)CCC3)c(C2Sc3ccccc3N(C)C2=O)c1 (stereo unspecified) | – | – | > 10000 nM | – | – | – | – | –
14 | COc1ccc(OCCCN(C)CCOc2cc(OC)c(OC)c(OC)c2)c(C2Sc3ccccc3N(C)C2=O)c1 (stereo unspecified) | 4100 nM | 500 nM | 230 nM | 8.2 | 370 nM | 11.1 | – | –
15 | COc1ccc(OCCCN(C)CCOc2c(OC)cccc2OC)c(C2Sc3ccccc3N(C)C2=O)c1 (stereo unspecified) | – | – | 510 nM | – | – | – | – | –
16 | COc1ccc(OCCCN(C)CCOc2ccc3c(c2)OCO3)c(C2(OC)Sc3ccccc3N(C)C2=O)c1 (stereo unspecified) | – | – | 250 nM | – | – | – | – | –
17 | COc1ccc(OCCCN(C)CCOc2ccc3c(c2)OCO3)c(C2CN(C)c3ccccc3S2)c1 (stereo unspecified) | – | – | > 10000 nM | – | – | – | – | –
18 | COc1ccc(OCCCN(C)CCOc2ccc3c(c2)OCO3)c(C2Sc3ccccc3N(C)C2=S)c1 (stereo unspecified) | – | – | > 10000 nM | – | – | – | – | –
19 | COc1ccc(OCCCN(C)CCOc2ccc3c(c2)OCO3)c(C2Sc3ccccc3N(C)C2=O)c1 (stereo in doubt; 15) | 660 nM | 590 nM | – | 1.1 | 310 nM | 2.1 | 180 nM | –
20 | COc1ccc(OCCCN(C)CCOc2ccc3c(c2)OCO3)c(C2Sc3ccccc3N(C)C2=O)c1 (stereo in doubt; (-)-15) | – | – | – | – | – | – | 600 nM | –
21 | COc1ccc([C@@H]2Sc3ccccc3N(CCN(C)C)C(=O)[C@@H]2OC(C)=O)cc1 [DILTIAZEM] | 4500 nM | 600 nM | – | 7.5 | 95 nM | 47.4 | – | –
22 | COc1ccc(OCCCN(C)CCOc2ccc3c(c2)OCO3)c([C@H]2Sc3ccccc3N(C)C2=O)c1 [SEMOTIADIL] | 230 nM | 180 nM | 89 nM | 1.3 | 68 nM | 3.4 | – | –
23 | COc1ccc(CCN(C)CCCC(C#N)(c2ccc(OC)c(OC)c2)C(C)C)cc1OC (stereo unspecified) [VERAPAMIL] | 620 nM | – | – | 3 | 35 nM | 17.7 | – | 210 nM
